# Results: PubChem BioAssay (NCI)
#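 1) Cells in 96-well plates. 2) Compound, 48 h, 5 concentrations. 3) Linear interpolation between surrounding doses. 4) Unreached endpoint = highest concentration. Abbreviation: GI50, concentration required for 50% inhibition of growth. At the TGI there is no net growth.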
# Experiments:
# Assay in all cases: NCI-60 cell line screen, 48 h
# SNB-75 CNS = system: SNB-75 CNS
# SW-620 colon = system: SW-620 colon
# 786-0 renal = system: 786-0 renal
# MDA-MB-231 breast = system: MDA-MB-231 breast
# ACHN renal = system: ACHN renal
# BT-549 breast = system: BT-549 breast
# SN12C renal = system: SN12C renal
# UACC-62 melanoma = system: UACC-62 melanoma
# OVCAR-4 ovarian = system: OVCAR-4 ovarian
# HCT-116 colon = system: HCT-116 colon
# T-47D breast = system: T-47D breast
# COLO 205 colon = system: COLO 205 colon
# SK-MEL-28 melanoma = system: SK-MEL-28 melanoma
# HL-60(TB) leukemia = system: HL-60(TB) leukemia
# UACC-257 melanoma = system: UACC-257 melanoma
# HS 578T breast = system: HS 578T breast
# IGROV1 ovarian = system: IGROV1 ovarian
# MDA-MB-435 = system: MDA-MB-435
# NCI-H23 lung = system: NCI-H23 lung
# MCF7 breast = system: MCF7 breast
# CCRF-CEM leukemia = system: CCRF-CEM leukemia
# OVCAR-5 ovarian = system: OVCAR-5 ovarian
# HCC-2998 colon = system: HCC-2998 colon
# RXF 393 renal = system: RXF 393 renal
# K-562 leukemia = system: K-562 leukemia
# SNB-19 CNS = system: SNB-19 CNS
# SF-539 CNS = system: SF-539 CNS
# TK-10 renal = system: TK-10 renal
# SR leukemia = system: SR leukemia
# A549 NSCLC = system: A549 NSCLC
# UO-31 renal = system: UO-31 renal
# PC-3 prostate = system: PC-3 prostate
# HCT-15 colon = system: HCT-15 colon
# MALME-3M melanoma = system: MALME-3M melanoma
# NCI-H522 lung = system: NCI-H522 lung
# SF-295 CNS = system: SF-295 CNS
# NCI-H226 lung = system: NCI-H226 lung
# SF-268 CNS = system: SF-268 CNS
# HOP-62 NSCLC = system: HOP-62 NSCLC
# NCI-H460 lung = system: NCI-H460 lung
# M14 melanoma = system: M14 melanoma
# HT29 colon = system: HT29 colon
# KM12 colon = system: KM12 colon
# A498 renal = system: A498 renal
# SK-OV-3 ovarian = system: SK-OV-3 ovarian
# DU-145 prostate = system: DU-145 prostate
# CAKI-1 renal = system: CAKI-1 renal
# OVCAR-8 ovarian = system: OVCAR-8 ovarian
# SK-MEL-5 melanoma = system: SK-MEL-5 melanoma
# OVCAR-3 ovarian = system: OVCAR-3 ovarian
# RPMI-8226 leukemia = system: RPMI-8226 leukemia
# NCI/ADR-RES ovarian = system: NCI/ADR-RES ovarian
# MOLT-4 leukemia = system: MOLT-4 leukemia
smiles,measurement,setting,value
CCOC(=O)Nc1cc(-c2ccc(C)c(NS(C)(=O)=O)c2)nn2c(C)nnc12,GI50,SNB-75 CNS,477 nM
same,TGI,SNB-75 CNS,9.13 µM
same,GI50,SW-620 colon,2420 nM
same,TGI,SW-620 colon,30.9 µM
same,GI50,786-0 renal,2640 nM
same,TGI,786-0 renal,> 100 µM
same,GI50,MDA-MB-231 breast,807 nM
same,TGI,MDA-MB-231 breast,20.4 µM
same,GI50,ACHN renal,2640 nM
same,TGI,ACHN renal,60.7 µM
same,GI50,BT-549 breast,5.35 µM
same,TGI,BT-549 breast,> 100 µM
same,GI50,SN12C renal,2060 nM
same,TGI,SN12C renal,58.5 µM
same,GI50,UACC-62 melanoma,445 nM
same,TGI,UACC-62 melanoma,18.5 µM
same,GI50,OVCAR-4 ovarian,735 nM
same,TGI,OVCAR-4 ovarian,10.9 µM
same,GI50,HCT-116 colon,1900 nM
same,TGI,HCT-116 colon,15.3 µM
same,GI50,T-47D breast,1470 nM
same,TGI,T-47D breast,17 µM
same,GI50,COLO 205 colon,452 nM
same,TGI,COLO 205 colon,1550 nM
same,GI50,SK-MEL-28 melanoma,2690 nM
same,TGI,SK-MEL-28 melanoma,> 100 µM
same,GI50,HL-60(TB) leukemia,334 nM
same,TGI,HL-60(TB) leukemia,2710 nM
same,GI50,UACC-257 melanoma,1110 nM
same,TGI,UACC-257 melanoma,> 100 µM
same,GI50,HS 578T breast,563 nM
same,TGI,HS 578T breast,6.82 µM
same,GI50,IGROV1 ovarian,1570 nM
same,TGI,IGROV1 ovarian,8.17 µM
same,GI50,MDA-MB-435,1330 nM
same,TGI,MDA-MB-435,41.7 µM
same,GI50,NCI-H23 lung,1930 nM
same,TGI,NCI-H23 lung,9.16 µM
same,GI50,MCF7 breast,395 nM
same,TGI,MCF7 breast,> 100 µM
same,GI50,CCRF-CEM leukemia,1010 nM
same,TGI,CCRF-CEM leukemia,14.9 µM
same,GI50,OVCAR-5 ovarian,2640 nM
same,TGI,OVCAR-5 ovarian,31.3 µM
same,GI50,HCC-2998 colon,1590 nM
same,TGI,HCC-2998 colon,3.37 µM
same,GI50,RXF 393 renal,2590 nM
same,TGI,RXF 393 renal,12.9 µM
same,GI50,K-562 leukemia,1730 nM
same,TGI,K-562 leukemia,> 100 µM
same,GI50,SNB-19 CNS,799 nM
same,TGI,SNB-19 CNS,> 100 µM
same,GI50,SF-539 CNS,1860 nM
same,TGI,SF-539 CNS,> 100 µM
same,GI50,TK-10 renal,465 nM
same,TGI,TK-10 renal,7.36 µM
same,GI50,SR leukemia,643 nM
same,TGI,SR leukemia,> 100 µM
same,GI50,A549 NSCLC,3.07 µM
same,TGI,A549 NSCLC,> 100 µM
same,GI50,UO-31 renal,697 nM
same,TGI,UO-31 renal,> 100 µM
same,GI50,PC-3 prostate,1360 nM
same,TGI,PC-3 prostate,> 100 µM
same,GI50,HCT-15 colon,1260 nM
same,TGI,HCT-15 colon,10.3 µM
same,GI50,MALME-3M melanoma,1110 nM
same,TGI,MALME-3M melanoma,41.5 µM
same,GI50,NCI-H522 lung,381 nM
same,TGI,NCI-H522 lung,3.22 µM
same,GI50,SF-295 CNS,1850 nM
same,TGI,SF-295 CNS,56.3 µM
same,GI50,NCI-H226 lung,3.93 µM
same,TGI,NCI-H226 lung,24.4 µM
same,GI50,SF-268 CNS,4.13 µM
same,TGI,SF-268 CNS,> 100 µM
same,GI50,HOP-62 NSCLC,1890 nM
same,TGI,HOP-62 NSCLC,20.5 µM
same,GI50,NCI-H460 lung,2040 nM
same,TGI,NCI-H460 lung,> 100 µM
same,GI50,M14 melanoma,2100 nM
same,TGI,M14 melanoma,> 100 µM
same,GI50,HT29 colon,809 nM
same,TGI,HT29 colon,14.1 µM
same,GI50,KM12 colon,2020 nM
same,TGI,KM12 colon,19.7 µM
same,GI50,A498 renal,1590 nM
same,TGI,A498 renal,5.88 µM
same,GI50,SK-OV-3 ovarian,1210 nM
same,TGI,SK-OV-3 ovarian,5.66 µM
same,GI50,DU-145 prostate,5.02 µM
same,TGI,DU-145 prostate,> 100 µM
same,GI50,CAKI-1 renal,537 nM
same,TGI,CAKI-1 renal,23.6 µM
same,GI50,OVCAR-8 ovarian,2040 nM
same,TGI,OVCAR-8 ovarian,> 100 µM
same,GI50,SK-MEL-5 melanoma,2680 nM
same,TGI,SK-MEL-5 melanoma,10.4 µM
same,GI50,OVCAR-3 ovarian,1360 nM
same,TGI,OVCAR-3 ovarian,6.56 µM
same,GI50,RPMI-8226 leukemia,549 nM
same,TGI,RPMI-8226 leukemia,4.97 µM
same,GI50,NCI/ADR-RES ovarian,6.26 µM
same,TGI,NCI/ADR-RES ovarian,> 100 µM
same,GI50,MOLT-4 leukemia,2450 nM
same,TGI,MOLT-4 leukemia,9.94 µM
